Assay results published in US20240325341A1, “ANTI-BACTERIAL EFFECT OF HALOGENATED FLUORESCEINS AGAINST COLISTIN-RESISTANT GRAM-NEGATIVE BACTERIA” (priority 2023, published 2024).
In brackets after ≈: the same amount, converted by molar mass. Where two headings read alike, the source gives them in different places.

Assays:
Format in all cases: cell-based
[1] = system: Escherichia coli (ATCC 35218); assay: MIC by broth dilution
[2] = system: Escherichia coli (ATCC 35218) colistin-resistant strain; assay: microbe, parasite or virus in culture
[3] = system: Escherichia coli serotype O157 (TW07793); assay: microbe, parasite or virus in culture; conditions: broth dilution, 24 h, entry 3
[4] = system: Escherichia coli serotype O157 (TW07793) colistin-resistant strain; assay: microbe, parasite or virus in culture; conditions: 24 h
[5] = system: Acinetobacter baumannii (ATCC19606); assay: MIC by broth dilution
[6] = system: Acinetobacter baumannii (ATCC19606) colistin-resistant strain; assay: microbe, parasite or virus in culture
[7] = system: Acinetobacter baumannii (ATCC BAA1800); assay: MIC by broth dilution
[8] = system: Acinetobacter baumannii (ATCC BAA1800) colistin-resistant strain; assay: microbe, parasite or virus in culture
[9] = system: Klebsiella pneumoniae (ATCC 19606); assay: MIC by broth dilution; conditions: Klebsiella pneumoniae, ATCC19606, 24 h, entry 9
[10] = system: Klebsiella pneumoniae colistin-resistant strain; assay: microbe, parasite or virus in culture; conditions: Klebsiella pneumoniae, ATCC19606, 24 h
[11] = system: Klebsiella pneumoniae (CRE) CHS 67 (NR48569); assay: MIC by broth dilution; conditions: 24 h
[12] = system: Klebsiella pneumoniae (CRE) CHS 67 (NR48569) colistin-resistant strain; assay: microbe, parasite or virus in culture; conditions: 24 h
[13] = system: Pseudomonas aeruginosa (ATCC 27853); assay: MIC by broth dilution
[14] = system: Pseudomonas aeruginosa (ATCC 27853) - intermediate colistin-resistant strain; assay: microbe, parasite or virus in culture
[15] = system: Pseudomonas aeruginosa (ATCC 27853) - high colistin-resistant strain; assay: microbe, parasite or virus in culture
[16] = system: Pseudomonas aeruginosa MRSN 1356 (NR51521); assay: MIC by broth dilution; conditions: 24 h
[17] = system: Pseudomonas aeruginosa MRSN 1356 (NR51521) colistin-resistant strain; assay: microbe, parasite or virus in culture; conditions: 24 h
[18] = system: Pseudomonas aeruginosa MRSN 1380 (NR51522); assay: MIC by broth dilution; conditions: 24 h
[19] = system: Pseudomonas aeruginosa MRSN 1380 (NR51522) colistin-resistant strain; assay: microbe, parasite or virus in culture; conditions: 24 h
[20] = system: Burkholderia multivorans CGD1 (wild type); assay: MIC by broth dilution; conditions: 24 h
[21] = system: Burkholderia multivorans CGD1 colistin-resistant strain; assay: microbe, parasite or virus in culture; conditions: broth dilution, 24 h, entry 21
[22] = system: Burkholderia thailandensis E264 (Wild type); assay: microbe, parasite or virus in culture; conditions: 24 h
[23] = system: Burkholderia thailandensis E264 colistin-resistant strain; assay: microbe, parasite or virus in culture
[24] = system: Burkholderia cepacia genomovar III, LMG16656 (wild type); assay: microbe, parasite or virus in culture
[25] = system: Burkholderia cepacia genomovar III, LMG16656 colistin-resistant strain; assay: microbe, parasite or virus in culture; conditions: broth dilution, 24 h, entry 25
[26] = system: Salmonella enterica subsp. enterica Typhimurium (BAA 2721) (Wild type); assay: MIC by broth dilution; conditions: 24 h
[27] = system: Salmonella enterica subsp. enterica Typhimurium (BAA 2721) intermediate colistin-resistant strain; assay: microbe, parasite or virus in culture; conditions: 24 h
[28] = system: Salmonella enterica Pennsylvania, Serovar Typhimurium, Isolate 1 (NR4333); assay: MIC by broth dilution; conditions: 24 h
[29] = system: Salmonella enterica Pennsylvania, Serovar Typhimurium, Isolate 1 (NR4333) colistin-resistant strain; assay: microbe, parasite or virus in culture; conditions: 24 h
[30] = system: Proteus mirabilis urine strain WGLW4 (Wild type); assay: MIC by broth dilution; conditions: 24 h
[31] = system: Proteus mirabilis urine strain WGLW4 colistin-resistant strain; assay: microbe, parasite or virus in culture; conditions: 24 h
[32] = system: Serratia sp. strain Ag2 (Wild-type); assay: MIC by broth dilution
[33] = system: Serratia sp. strain Ag2 colistin-resistant strain; assay: microbe, parasite or virus in culture; conditions: 24 h
[34] = system: E. coli ATCC35218 colistin^R; conditions: 30 min; reference molecule at 10 mg/mL
[35] = system: colistin-resistant Gram-negative bacteria; conditions: under a fluorescent light
Klebsiella pneumoniae = assay: MIC by broth dilution; conditions: 24 h, entry 9
[36] = system: Klebsiella pneumoniae (ATCC 19606) colistin-resistant strain; assay: microbe, parasite or virus in culture; conditions: broth dilution, 24 h; entry 10
[37] = Pseudomonas aeruginosa, ATCC27853, 24 h

C[C@@H](O)[C@H]1C(=O)N2C(C(=O)O)=C(S[C@@H]3CN[C@H](C(=O)N(C)C)C3)[C@H](C)[C@H]12 [Meropenem]
MIC ([1]; Escherichia coli, ATCC35218, 24 h, entry 1, read-out: MIC): < 0.8 µg/mL | MIC ([2]; Escherichia coli, ATCC35218, 24 h): 25 µg/mL (≈ 65.2 µM) | MIC ([3]; Escherichia coli, read-out: MIC): 1.6 µg/mL (≈ 4.17 µM) | MIC ([4]; Escherichia coli): 12.5 µg/mL (≈ 32.6 µM) | MIC ([5]; Acinetobacter baumannii, ATCC19606, 24 h, entry 5, read-out: MIC): 100 µg/mL (≈ 261 µM) | MIC ([6]; Acinetobacter baumannii, ATCC19606, 24 h): > 100 µg/mL | MIC ([7]; Acinetobacter baumannii, ATCCBAA1800, 24 h, entry 7, read-out: MIC): > 100 µg/mL | MIC ([8]; Acinetobacter baumannii, ATCCBAA1800, 24 h): > 100 µg/mL | MIC [9]: > 100 µg/mL | MIC [10]: > 100 µg/mL | MIC ([11]; Klebsiella pneumoniae, entry 11, read-out: MIC): > 100 µg/mL | MIC ([12]; Klebsiella pneumoniae): > 100 µg/mL | MIC ([13]; Pseudomonas aeruginosa, ATCC27853, 24 h, entry 13, read-out: MIC): > 100 µg/mL | MIC [14, 37]: > 100 µg/mL | MIC [15, 37]: > 100 µg/mL | MIC ([16]; Pseudomonas aeruginosa, entry 16, read-out: MIC): > 100 µg/mL | MIC ([17]; Pseudomonas aeruginosa): > 100 µg/mL | MIC ([18]; Pseudomonas aeruginosa, entry 18, read-out: MIC): 3.13 µg/mL (≈ 8.16 µM) | MIC ([19]; Pseudomonas aeruginosa): 100 µg/mL (≈ 261 µM) | MIC ([20]; Burkholderia multivorans, entry 20, read-out: MIC): 25 µg/mL (≈ 65.2 µM) | MIC ([21]; Burkholderia multivorans, read-out: MIC): > 100 µg/mL | MIC ([22]; Burkholderia thailandensis): 12.5 µg/mL (≈ 32.6 µM) | MIC ([23]; Burkholderia thailandensis, 24 h): > 100 µg/mL | MIC ([24]; Burkholderia cepacia, LMG16656, 24 h): 25 µg/mL (≈ 65.2 µM) | MIC ([25]; Burkholderia cepacia, LMG16656, read-out: MIC): 100 µg/mL (≈ 261 µM) | MIC ([26]; Salmonella enterica, entry 26, read-out: MIC): 3.1 µg/mL (≈ 8.08 µM) | MIC ([27]; Salmonella enterica): 6.25 µg/mL (≈ 16.3 µM) | MIC ([28]; Salmonella enterica, entry 28, read-out: MIC): 1.6 µg/mL (≈ 4.17 µM) | MIC ([29]; Salmonella enterica): > 100 µg/mL | MIC ([30]; Proteus mirabilis, entry 30, read-out: MIC): > 200 µg/mL | MIC ([31]; Proteus mirabilis): > 200 µg/mL | MIC ([32]; Serratia, 24 h, entry 32, read-out: MIC): 0.039 µg/mL (≈ 0.102 µM) | MIC ([32]; Table 1, 24 h): 4000 µg/mL (≈ 10400 µM) | MIC ([33]; Serratia): 12.5 µg/mL (≈ 32.6 µM) | reduction of strain (CFU) [34]: 0%

O=C1OC2(c3cc(I)c(O)c(I)c3Oc3c2cc(I)c(O)c3I)c2c(Cl)c(Cl)c(Cl)c(Cl)c21 [RB, 4,5,6,7-tetrachloro-2′,4′,5′,7′-tetraiodo-fluorescein]
bactericidal activity [35]: 0.05 to 6.25 µg/mL

Amikacin
MIC ([1]; 24 h, entry 1): 3.1 µg/mL | MIC ([2]; broth dilution, 24 h, entry 2): >100 µg/mL | MIC [3]: 1.6 µg/mL | MIC ([4]; broth dilution, entry 4): 25.0 µg/mL | MIC ([5]; 24 h, entry 5): 16.0 µg/mL | MIC ([6]; broth dilution, 24 h, entry 6): >100 µg/mL | MIC ([7]; 24 h, entry 7): 64.0 µg/mL | MIC ([8]; broth dilution, 24 h, entry 8): >100 µg/mL | MIC (Klebsiella pneumoniae): 4.0 µg/mL | MIC [36]: 64.0 µg/mL | MIC ([11]; entry 11): 16.0 µg/mL | MIC ([12]; broth dilution, entry 12): >100 µg/mL | MIC ([13]; 24 h, entry 13): 32.0 µg/mL | MIC ([14]; broth dilution, 24 h, entry 14): >100 µg/mL | MIC ([15]; broth dilution, 24 h, entry 15): >200 µg/mL | MIC ([16]; entry 16): 32.0 µg/mL | MIC ([17]; broth dilution, entry 17): >100 µg/mL | MIC ([18]; entry 18): 64.0 µg/mL | MIC ([19]; broth dilution, entry 19): >100 µg/mL | MIC ([20]; entry 20): 200.0 µg/mL | MIC [21]: >200.0 µg/mL | MIC ([22]; broth dilution, entry 22): 64.0 µg/mL | MIC [23]: >200 µg/mL | MIC ([24]; broth dilution, 24 h, entry 24): >100 µg/mL | MIC [25]: >200 µg/mL | MIC ([26]; entry 26): 1.6 µg/mL | MIC ([27]; broth dilution, entry 27): >100 µg/mL | MIC ([28]; entry 28): 1.6 µg/mL | MIC ([29]; broth dilution, entry 29): >100 µg/mL | MIC ([30]; entry 30): >200 µg/mL | MIC ([31]; broth dilution, entry 31): >200 µg/mL | MIC ([32]; 24 h, entry 32): >200 µg/mL | MIC ([33]; broth dilution, entry 33): >200 µg/mL | reduction of strain (CFU) [34]: about 3.5%
